# Measurements taken from paper PMC3717557 (Journal of medicinal chemistry, 2012).
# Like-named read-outs stand apart in the source and are kept apart here.
# Legend:
# tadpoles = settings: cited from earlier work
# human α1β3 GABAAR = biological target: T1, human α1β3 GABAAR (Homo sapiens, UniProt P14867+P28472); settings: cited from earlier work
# T1 sequence (P14867 28-456): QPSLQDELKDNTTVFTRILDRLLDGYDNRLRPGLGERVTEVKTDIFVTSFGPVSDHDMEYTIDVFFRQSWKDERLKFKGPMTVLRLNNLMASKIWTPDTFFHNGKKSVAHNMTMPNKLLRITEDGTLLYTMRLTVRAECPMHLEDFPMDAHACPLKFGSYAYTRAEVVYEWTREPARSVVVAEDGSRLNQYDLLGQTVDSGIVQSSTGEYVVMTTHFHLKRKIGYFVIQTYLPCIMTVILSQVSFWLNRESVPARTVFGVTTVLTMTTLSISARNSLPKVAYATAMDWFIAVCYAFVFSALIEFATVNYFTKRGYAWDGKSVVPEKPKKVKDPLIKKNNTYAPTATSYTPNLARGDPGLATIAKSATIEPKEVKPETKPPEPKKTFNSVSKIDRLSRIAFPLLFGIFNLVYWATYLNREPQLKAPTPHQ
# T1 sequence (P28472 26-473): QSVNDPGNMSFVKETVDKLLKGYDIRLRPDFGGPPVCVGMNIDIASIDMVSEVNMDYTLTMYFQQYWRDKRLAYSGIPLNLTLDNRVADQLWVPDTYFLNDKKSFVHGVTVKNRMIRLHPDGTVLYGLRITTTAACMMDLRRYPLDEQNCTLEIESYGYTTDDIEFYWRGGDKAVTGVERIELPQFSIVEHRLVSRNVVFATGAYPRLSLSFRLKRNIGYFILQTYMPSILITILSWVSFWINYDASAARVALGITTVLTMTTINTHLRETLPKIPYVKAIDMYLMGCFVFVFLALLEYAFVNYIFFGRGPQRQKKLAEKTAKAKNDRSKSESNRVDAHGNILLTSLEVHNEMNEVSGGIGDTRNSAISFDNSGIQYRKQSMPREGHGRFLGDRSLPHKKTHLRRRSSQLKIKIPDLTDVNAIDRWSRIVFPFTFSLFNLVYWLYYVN
# [1] = Stability in buffer at 4°C; type: physicochemical; settings: 0.01 M Tris/HCl pH 7.4, concentration close to saturation
# [2] = pKa of NH proton by UV absorbance pH titration; type: physicochemical; settings: dilute phosphate buffer
# [3] = biological target: human α1β2γ2L GABAA receptor (Homo sapiens, UniProt P14867+P18507+P47870); type: cell-based
# GABAA receptor = settings: concentrations close to anesthetic EC50 (65 μM); cited from earlier work
# [4] = cited from earlier work
# [5] = cited from earlier work; remark: listed apart in the source
# [6] = cited from earlier work; remark: listed apart in the source
# [7] = read-out: EC50, tadpole loss of righting reflex
# [8] = read-out: general anesthetic EC50
# human α1β2γ2L GABAA receptor, sequence (P47870 25-512 limits assumed, one chain of several): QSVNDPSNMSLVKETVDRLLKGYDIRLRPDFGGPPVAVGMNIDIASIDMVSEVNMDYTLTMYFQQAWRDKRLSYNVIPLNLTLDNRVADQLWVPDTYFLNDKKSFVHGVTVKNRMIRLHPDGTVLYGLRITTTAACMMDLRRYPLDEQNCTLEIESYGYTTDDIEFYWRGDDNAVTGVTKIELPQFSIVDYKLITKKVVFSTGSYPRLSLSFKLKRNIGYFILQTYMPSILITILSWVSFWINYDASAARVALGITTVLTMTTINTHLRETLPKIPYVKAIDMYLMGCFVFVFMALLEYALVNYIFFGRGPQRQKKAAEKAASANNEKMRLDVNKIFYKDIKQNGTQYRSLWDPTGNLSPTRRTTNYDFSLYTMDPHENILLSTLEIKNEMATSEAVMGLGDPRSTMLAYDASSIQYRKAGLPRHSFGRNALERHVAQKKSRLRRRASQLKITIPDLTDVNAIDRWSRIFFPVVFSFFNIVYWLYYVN
# human α1β2γ2L GABAA receptor, sequence (P18507 40-475, one chain of several): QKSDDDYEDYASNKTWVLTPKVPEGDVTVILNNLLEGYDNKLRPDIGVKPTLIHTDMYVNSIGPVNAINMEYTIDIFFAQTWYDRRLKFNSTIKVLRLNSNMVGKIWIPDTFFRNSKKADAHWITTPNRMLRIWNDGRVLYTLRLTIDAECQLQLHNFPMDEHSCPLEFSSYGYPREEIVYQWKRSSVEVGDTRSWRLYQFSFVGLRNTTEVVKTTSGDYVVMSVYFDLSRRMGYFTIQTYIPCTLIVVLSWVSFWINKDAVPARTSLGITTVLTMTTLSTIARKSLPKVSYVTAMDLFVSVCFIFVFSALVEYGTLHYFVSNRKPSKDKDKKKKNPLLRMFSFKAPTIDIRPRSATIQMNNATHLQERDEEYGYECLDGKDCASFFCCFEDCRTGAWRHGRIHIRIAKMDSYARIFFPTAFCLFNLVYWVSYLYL
structure (smiles),measurement,setting,value
CCC1(c2ccccc2)C(=O)NC(=O)NC1=O [phenobarbital],EC50,tadpoles; [7],3300 µM
C[C@H](c1ccccc1)n1cncc1C(=O)OCc1ccc(C2(C(F)(F)F)N=N2)cc1 [aryldiazirine analog of etomidate],efficiency of α1β3 GABAAR subunit photolabeling,human α1β3 GABAAR,0.5%
C=CCC1(C(C)C#CCC)C(=O)N=C(O)N(C)C1=O (stereo not drawn) [methohexital],EC50,tadpoles; [7],20 µM
"C=CCC1(c2cccc(C3(C(F)(F)F)N=N3)c2)C(=O)NC(=O)N(C)C1=O (racemic) [(±)-14, (±)-5-Allyl-1-methyl-5-[3-(3-trifluoromethyl-3H-diazirin-3-yl)-phenyl]-pyrimidine-2,4,6-trione]",time stable in buffer,[1],at least 2.5 days
same,pKa,[2],7.48 ± 0.08
"NCCCC(=O)O [GABA, γ-aminobutyric acid]",GABA concentration response nH,[3]; GABA alone,1.8 ± 0.1
"CCCC(C)C1(CC)C(=O)NC(=O)NC1=O (stereo not drawn) [pentobarbital, 5-ethyl-5-(pentan-2-yl)pyrimidine-2,4,6(1H,3H,5H)-trione]",fold potentiation of 10 μM GABA currents,GABAA receptor,4-6 fold
same,EC50,tadpoles; read-out: EC50 producing anesthesia in tadpoles,~140 µM
C=CC[C@@]1(c2cccc(C3(C(F)(F)F)N=N3)c2)C(=O)NC(=O)N(C)C1=O [R-(−)-14],GABA nH in the presence of compound,[3]; 8 μM compound,1.0 ± 0.1
CCC1(c2ccccc2)C(=O)NC(=O)N(C)C1=O (stereo not drawn) [mephobarbital],pKa,[4],7.65
same,solubility in water,[5],600 µM
same,EC50,tadpoles; [7],90 µM
same,octanol/water partition coefficient,[6],69
CCOC(=O)c1cncn1[C@H](C)c1ccccc1 [R-(+)-etomidate],EC50,tadpoles; [8],2.3 µM
CC(C)c1cccc(C(C)C)c1O [propofol],EC50,tadpoles; [8],2.2 µM
